This passage reports EC50 results from patent publication US9988430B2, “Stable GLP-1 based GLP-1/glucagon receptor co-agonists” (Novo Nordisk A/S, priority 2014, dated 2018).

*1 amine or outer side, *2 acyl side, *3 side chain or, on linkers, in order; H or OH if unused. Where a SMILES comes first, the peptide text is derived from it. Side-chain parts run from the residue outwards. [ ]: non-standard residue; d: D form. The star is where a group is joined. C18 diacid = O=C(O)CCCCCCCCCCCCCCCCC(=O)*; γGlu = O=C(O)[C@H](CCC(=O)[*:2])N[*:1]; Desaminohistidyl = O=C(CCc1c[nH]cn1)*; AEEA = NCCOCCOCC(=O)O; Aib = CC(C)(N)C(=O)O

T1 sequence (P43220 24-463): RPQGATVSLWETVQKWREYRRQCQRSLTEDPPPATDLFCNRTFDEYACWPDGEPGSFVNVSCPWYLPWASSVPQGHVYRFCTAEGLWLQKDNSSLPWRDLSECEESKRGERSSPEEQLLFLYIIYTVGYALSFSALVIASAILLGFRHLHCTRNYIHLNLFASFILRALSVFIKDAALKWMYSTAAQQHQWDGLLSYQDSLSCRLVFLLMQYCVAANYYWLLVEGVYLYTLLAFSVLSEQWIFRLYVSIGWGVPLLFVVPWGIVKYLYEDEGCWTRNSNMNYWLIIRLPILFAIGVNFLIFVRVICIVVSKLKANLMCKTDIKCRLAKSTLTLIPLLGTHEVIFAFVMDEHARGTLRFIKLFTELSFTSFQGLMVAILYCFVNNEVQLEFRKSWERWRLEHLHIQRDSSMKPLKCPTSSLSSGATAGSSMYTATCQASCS

This test has as its target T1, human GLP-1 receptor (Homo sapiens, UniProt P43220).
T1 construct: expressed in transfected cells; host or cells: membranes of BHK cells, parent line BHKTS13, clone FCW467-12A
Description: Assay (I)(a): GLP-1 receptor potency, CRE luciferase reporter gene assay in BHK cells. It counts as cell-based. The note with it: BHK cells expressing human GLP-1 receptor, read-out: EC50 GLP-1R. Here is the method: Assay (I): GLP-1 and Glucagon Receptor Potency The purpose of this example was to test the activity or potency, of the GLP-1 derivatives of the invention, in vitro. The in vitro potency is the measure of human GLP-1 receptor (GLP-1R) or glucagon receptor (glucagonR) activation, respectively, in a whole cell assay. In vitro potency was determined by measuring the cellular response of human GLP-1 or glucagon receptor activation, respectively, in a reporter gene assay. The assay was performed in a BHK cell line that stably expresses either the human GLP-1 receptor or the human glucagon receptor and comprises the DNA for the cAMP response element (CRE) coupled to a promoter and the gene for firefly luciferase (CRE luciferase). […] When assay incubation was completed, the luciferase substrate (luciferin) was added and the enzyme converted luciferin to oxyluciferin and produces bioluminescence. The luminescence was measured as the readout for the assay. (a) GLP-1 Receptor Activation The cells used in this assay (clone FCW467-12A/KZ10-1) were BHK cells with BHKTS13 as a parent cell line. The cells were derived from a clone (FCW467-12A) that expresses the human GLP-1 receptor and were established by further transfection with CRE luciferase to obtain the current clone. The cells were cultured at 5% CO2 in DMEM medium with 10% FBS, 1×GlutaMAX, 1 mg/ml G418, 240 nM MTX (methotrexate) and 1% pen/strep (penicillin/streptomycin). They were aliquoted and stored in liquid nitrogen. Before each assay, an aliquot was taken up and washed three times in PBS before being suspended at the desired concentration in assay medium. For 96-well plates the suspension was made to give a final concentration of 5×10EE3 cells/well. The following chemicals were used in the assay: Pluronic F-68 (10%) (Gibco 2404), Ovalbumin (Sigma A5503), DMEM w/o phenol red (Gibco 11880-028), 1 M Hepes (Gibco 15630), Glutamax 100× (Gibco 35050) and steadylite plus (PerkinElmer 6016757). Assay Medium consisted of DMEM w/o phenol red, 10 mM Hepes, 1×GlutaMAX, 2% Ovalbumin and 0.2% Pluronic F-68. Cell stocks were thawed in a 37° C. water bath. Cells were washed three times in PBS. The cells were counted and adjusted to 5×10EE3 cells/50 μl (1×10EE5 cells/ml) in Assay Medium. A 50 μl aliquot of cells was transferred to each well in the assay plate. Stocks of the test compounds and reference compounds were diluted to a concentration of […] in Assay Medium. Compounds were diluted 10-fold to give the following concentrations: 2×10EE-6 M, 2×10EE-7 M, 2×10EE-8 M; 2×10EE-9 M, 2×10EE-10 M, 2×10EE-11 M, 2×10EE-12 M and 2×10EE-13 M. For each compound a blank assay medium control was also included. A 50 μl aliquot of compound or blank was transferred from the dilution plate to the assay plate. Compounds were tested at the following final concentrations: 1×10EE-6 M, 1×10EE-7 M, 1×10EE-8 M; 1×10EE-9 M, 1×10EE-10 M, 1×10EE-11 M and 1×10EE-12 M and 1×10EE-13 M. The assay plate was incubated for 3 h in a 5% CO2 incubator at 37° C. The assay plate was removed from the incubator and allowed to stand at room temperature for 15 min. A 100 μl aliquot of steadylite plus reagent was added to each well of the assay plate (reagent is light sensitive). Each assay plate was covered with aluminum foil to protect it from light and shaken for 30 min at room temperature. Each assay plate was read in a Perkin Elmer TopCount NXT instrument. The data from the TopCount instrument was transferred to GraphPad Prism software. The software performed a non-linear regression (log(agonist) vs response-Variable slope (four parameter)). EC50 values were calculated by the software and reported in pM.
On to `CC[C@H](C)[C@H](NC(=O)[C@H](Cc1ccccc1)NC(=O)[C@H](CCC(=O)O)NC(=O)[C@H](CCCNC(=N)N)NC(=O)[C@H](C)NC(=O)[C@H](C)NC(=O)[C@H](CCC(N)=O)NC(=O)[C@H](C)NC(=O)[C@H](CCC(=O)O)NC(=O)[C@H](CC(C)C)NC(=O)[C@H](Cc1ccc(O)cc1)NC(=O)[C@H](CCCCN)NC(=O)[C@H](CO)NC(=O)[C@@H](NC(=O)[C@H](CC(=O)O)NC(=O)[C@H](CO)NC(=O)[C@@H](NC(=O)[C@H](Cc1ccccc1)NC(=O)[C@@H](NC(=O)CNC(=O)[C@H](Cc1c[nH]cn1)NC(=O)C(C)(C)NC(=O)CCc1c[nH]cn1)[C@@H](C)O)[C@@H](C)O)C(C)C)C(=O)N[C@@H](C)C(=O)N[C@@H](Cc1c[nH]c2ccccc12)C(=O)N[C@@H](CC(C)C)C(=O)N[C@@H](CC(C)C)C(=O)N[C@@H](CCCCNC(=O)CC[C@H](NC(=O)CC[C@H](NC(=O)COCCOCCNC(=O)CC[C@H](NC(=O)CC[C@H](NC(=O)CCCCCCCCCCCCCCCCC(=O)O)C(=O)O)C(=O)O)C(=O)O)C(=O)O)C(=O)N[C@H](C(N)=O)[C@@H](C)O` [Example 34, N^ε34-[(4S)-4-carboxy-4-[[(4S)-4-carboxy-4-[[2-[2-[2-[[(4S)-4-carboxy-4-[[(4S)-4-carboxy-4-(17-carboxyheptadecanoylamino)butanoyl]amino]butanoyl]amino]ethoxy]ethoxy]acetyl]amino]butanoyl]amino]butanoyl]-[Imp7,Aib8,His9,Lys18,Ala22,Arg26,Leu33,Thr35]-GLP-1-(7-35)-peptide amide] (Desaminohistidyl-[Aib]HGTFTSDVSKYLEAQAAREFIAWLLK([γGlu-γGlu-AEEA-γGlu-γGlu-C18 diacid])T-NH2), for which the EC50 (in general, the concentration at which the effect is half-maximal) is 3 pM.

With `CC[C@H](C)[C@H](NC(=O)[C@H](Cc1ccccc1)NC(=O)[C@H](CCC(=O)O)NC(=O)[C@H](CCCNC(=N)N)NC(=O)[C@H](C)NC(=O)[C@H](C)NC(=O)[C@H](CCCNC(=N)N)NC(=O)CNC(=O)[C@H](CCC(=O)O)NC(=O)[C@H](CC(C)C)NC(=O)[C@H](Cc1ccc(O)cc1)NC(=O)[C@H](CCCNC(=N)N)NC(=O)[C@H](CO)NC(=O)[C@@H](NC(=O)[C@H](CC(=O)O)NC(=O)[C@H](CO)NC(=O)[C@@H](NC(=O)[C@H](Cc1ccccc1)NC(=O)[C@@H](NC(=O)CNC(=O)[C@H](Cc1c[nH]cn1)NC(=O)C(C)(C)NC(=O)CCc1c[nH]cn1)[C@@H](C)O)[C@@H](C)O)C(C)C)C(=O)N[C@@H](C)C(=O)N[C@@H](Cc1c[nH]c2ccccc12)C(=O)N[C@@H](CC(C)C)C(=O)N[C@@H](CC(C)C)C(=O)N[C@@H](CCCCNC(=O)CC[C@H](NC(=O)CC[C@H](NC(=O)COCCOCCNC(=O)CC[C@H](NC(=O)CC[C@H](NC(=O)CCCCCCCCCCCCCCCCC(=O)O)C(=O)O)C(=O)O)C(=O)O)C(=O)O)C(=O)NCC(=O)N[C@@H](CO)C(=O)NCC(=O)O` [Example 36, N^ε34-[(4S)-4-carboxy-4-[[(4S)-4-carboxy-4-[[2-[2-[2-[[(4S)-4-carboxy-4-[[(4S)-4-carboxy-4-(17-carboxyheptadecanoylamino)butanoyl]amino]butanoyl]amino]ethoxy]ethoxy]acetyl]amino]butanoyl]amino]butanoyl]-[Imp7,Aib8,His9,Arg18,Arg23,Arg26,Leu33,Ser36]-GLP-1-(7-37)-peptide] (Desaminohistidyl-[Aib]HGTFTSDVSRYLEGRAAREFIAWLLK([γGlu-γGlu-AEEA-γGlu-γGlu-C18 diacid])GSG-OH), the EC50 came to 6 pM.

With `CC[C@H](C)[C@H](NC(=O)[C@H](Cc1ccccc1)NC(=O)[C@H](CCCCNC(=O)COCCOCCNC(=O)COCCOCCNC(=O)CC[C@H](NC(=O)CC[C@H](NC(=O)CC[C@H](NC(=O)CCCCCCCCCCCCCCCCC(=O)O)C(=O)O)C(=O)O)C(=O)O)NC(=O)[C@H](CCCNC(=N)N)NC(=O)[C@H](C)NC(=O)[C@H](C)NC(=O)[C@H](CCC(N)=O)NC(=O)[C@H](CCC(=O)O)NC(=O)[C@H](CCC(=O)O)NC(=O)[C@H](CC(C)C)NC(=O)[C@H](Cc1ccc(O)cc1)NC(=O)[C@H](CCCNC(=N)N)NC(=O)[C@H](CO)NC(=O)[C@@H](NC(=O)[C@H](CC(=O)O)NC(=O)[C@H](CO)NC(=O)[C@@H](NC(=O)[C@H](Cc1ccccc1)NC(=O)[C@@H](NC(=O)CNC(=O)[C@H](Cc1c[nH]cn1)NC(=O)[C@H](C)NC(=O)CCc1c[nH]cn1)[C@@H](C)O)[C@@H](C)O)C(C)C)C(=O)N[C@@H](C)C(=O)N[C@@H](Cc1c[nH]c2ccccc12)C(=O)N[C@@H](CC(C)C)C(=O)N[C@@H](CC(C)C)C(=O)N[C@@H](CCCNC(=N)N)C(=O)O` [Example 18, N^ε27-[2-[2-[2-[[2-[2-[2-[[(4S)-4-carboxy-4-[[(4S)-4-carboxy-4-[[(4S)-4-carboxy-4-(17-carboxyheptadecanoylamino)butanoyl]amino]butanoyl]amino]butanoyl]amino]ethoxy]ethoxy]acetyl]amino]ethoxy]ethoxy]acetyl]-[Imp7,His9,Arg18,Glu22,Arg26,Lys27,Leu33,Arg34]-GLP-1-(7-34)-peptide] (Desaminohistidyl-AHGTFTSDVSRYLEEQAARK([AEEA-AEEA-γGlu-γGlu-γGlu-C18 diacid])FIAWLLR-OH), the EC50 is 8 pM.
